Drawing on a melting point compilation (Tetko et al.), this text covers melting point for 112 molecules.

SMILES strings stand for the structures.

One may read the melting point as the temperature of the solid-liquid transition. On to `COP(=O)(OC)C(O)C(Cl)(Cl)Cl` (configuration not stated), for which the melting point worked out at 80 °C. The result for `C=CC(=O)NC(CO)(CO)CO` reads 136 to 141 °C.

Molecule `OCc1cnc(S)n1Cc1ccccc1` yielded a melting point of 238 to 240 °C.

In turn, `CC1CC=C/C1=N\Nc1ccc([N+](=O)[O-])cc1[N+](=O)[O-]` (configuration not stated) yielded a melting point of 180 °C. The result for `OCc1cccc(Oc2ccccn2)c1` reads 57 to 59 °C; that for `CCCCCCCCc1ccc(/N=N/c2ccc(OC(=O)CCCCCCC)cc2)cc1`, 58 to 63 °C. In turn, `O=C1/C(=C\c2ccc(Cl)cc2)SC(=S)N1CN1CCOCC1` yielded a melting point of 149 °C. The result for `COc1ccc(C(=O)NNC(=O)c2cccc3ccccc23)cc1` reads 189 °C; that for `CC12CCC(C(COC=O)C1=O)C2(C)C` (configuration not stated), 74 °C; that for `O=S(=O)(Oc1ccc(Cl)cc1)c1ccc(Cl)cc1`, 86.5 °C. The result for `c1ccc2c(-c3cccc4ccccc34)cccc2c1` reads 160 °C; that for `O=C(O)COc1cccc([N+](=O)[O-])c1`, 156 to 161 °C; that for `NCCCP(=O)(O)O`, 290 to 294 °C. Then `Cc1cccc(CCC(=O)O)c1`, with 41 to 44 °C. As to `CC(C)c1ccc(O)c(O)c1`, the melting point was found to be 78 °C.

In the case of `O=C(O)C=Cc1cc(F)cc(F)c1`, the melting point turned out to be 205 °C. The molecule `NC(=S)c1ccccn1` returned a melting point of 136 °C. `O=C(Cl)c1cncc(Br)c1` yielded a melting point of 84 to 86 °C. In turn, `CSC(S)=Nc1ccc(Cl)cc1` showed a melting point of 112 to 113 °C.

Molecule `CCCCCCCCCCCCCCCCCCCl` registered a melting point of 28.6 °C. `CN(C)C(=O)C(c1ccccc1)C(O)c1ccccc1` (configuration not stated) showed a melting point of 176 °C. On to `O=C(OCc1ccccc1)c1cnc(Cl)nc1C(F)(F)F`, for which the melting point was in the range of 45 to 47 °C.

Consider `Cc1ccc2nc3c(ccc4ccccc43)c(C)c2c1`, for which the melting point is 159 °C. The result for `OC1CC(c2ccccc2)NC2(CCCC2)C1` (configuration not stated) reads 240 to 243 °C; that for `NC(=S)c1csc2ccccc12`, 121 to 124 °C. The molecule `CSc1nc2ccc([N+](=O)[O-])cc2s1` gave a melting point of 134 to 136 °C. The result for `O=C1CCCCO1` reads -13 °C; that for `CCCNC(N)=O`, 107 to 109 °C; that for `Cn1nnc2cc(C(=O)Cl)ccc21`, 125 to 126 °C. Then `Nc1cc(F)c(C(F)(F)F)c(F)c1`, with 66 °C; and `O=C(O)c1ccc2c(c1)CCCC2`, with 156 °C. Molecule `Cc1ccc(Cl)cc1O` registered a melting point of 73 °C. In the case of `Cc1onc(-c2ccccc2)c1C=O`, the melting point lay in the range of 41 to 43 °C. Then `O=C1CCCC1C1CCCC1` (configuration not stated), with -13 °C; and `CN1CCC23CCCCC2C1Cc1ccc(O)cc13` (configuration not stated), with 198 °C; and `Brc1ccncc1`, with 0.5 °C.

With `CC(=O)OC1CC2C3CC=C4CC(O)CCC4(C)C3CCC2(C)C1C(C)C1CCC(C)CN1` (configuration not stated), the melting point amounted to 210 °C.

Take `CCC1(c2cccc(O)c2)CCCCN(C)C1=O` (configuration not stated): the melting point was in the range of 172 to 176 °C. The result for `O=Cc1c[nH]nc1-c1cccs1` reads 102 to 103 °C; that for `NCCOc1ccccc1Cl`, 40 °C; that for `O=C(Cl)c1ccccc1Cl`, -4 °C. The result for `Cc1ccc(F)cc1` reads -56 °C; that for `COC(=O)[C@H]1OC(c2ccc(OC)c(OC)c2)([C@@H](C)Br)O[C@@H]1C(=O)OC`, 97.3 °C. Then `Nc1cc2nc3c(cc2cc1C=O)CCCC3`, with 218 °C. In turn, `Nc1ccc(CN2CCCCC2)cc1` had a melting point of 87 to 88 °C. Then `N#CCc1nc(-c2ccc3c(c2)OCCO3)cs1`, with 116 to 118 °C. The result for `Cn1nc([N+](=O)[O-])c2c(=O)cc[nH]c21` reads 222 to 224 °C. Then `O=C(N=C=S)c1cccc([N+](=O)[O-])c1`, with 93 to 95 °C.

The molecule `CN(C)c1ccc(CNC2=CC(=O)c3ccccc3C2=O)cc1` returned a melting point of 165 to 167 °C.

On to `COc1cc(C2OCC3C(c4ccc(OC(C)=O)c(OC)c4)OCC23)ccc1OC(C)=O` (configuration not stated), for which the melting point is 166 °C. The result for `O=[N+]([O-])c1ccc2c(c1)NCC2` reads 68 °C; that for `CC(=O)Oc1nn(-c2ccccc2)cc1Br`, 82 to 85 °C. The result for `COc1cc(C)cc(OC)c1OC` reads 36 °C; that for `COC(=O)c1ccc(C(=O)O)cc1[N+](=O)[O-]`, 175 °C; that for `O=C(OCC(=O)N1CCC1C(=O)O)c1ccccc1` (configuration not stated), 150 °C.

`COC(=O)c1ccc(C(=O)OC)c(I)c1`: the melting point lay within 81 to 82 °C. The result for `CC(C)(C)OC(=O)NCc1ccsc1Br` reads 71 to 72 °C. For the molecule `CCOC(=O)C1=C(C)NC(=O)NC1c1cccc(OC)c1O` (configuration not stated), the melting point was found to be 209 °C. The result for `O=C(O)C(=CN(O)c1ccccc1)c1ccccc1` reads 75 °C. The result for `CCCCCCCCCCCCOc1ccc(C=O)cc1` reads 28 °C; that for `CC(=O)c1ccc(N2CCNCC2)cc1`, 107 to 110 °C. Then `O=C(O)Cc1ccc(O)c([N+](=O)[O-])c1`, with 147 °C; and `c1ccc(N2CSc3nnc(-c4cccnc4)n3C2)cc1`, with 214 °C. For `O=[N+]([O-])c1cc([N+](=O)[O-])c(C2CO2)cc1C1CO1` (configuration not stated), the melting point was 153 to 154 °C. Then `Cc1ccc2c(C)cccc2c1C`, with 33.5 °C. The result for `COC(=O)Cn1nnc(N2CCOCC2)n1` reads 100 to 103 °C; that for `OCC1(O)CC(O)C(O)CO1` (configuration not stated), 111 °C.

The molecule `Cc1cc(C)c(O)c(C(=O)CC2CC(=O)NC(=O)C2)c1` yielded a melting point of 201 °C. The result for `O=C1OC(=O)C2C3C=CC(C12)C1C(=O)OC(=O)C31` (configuration not stated) reads 360 °C; that for `COC(=O)c1scc(C#N)c1N`, 149 to 150 °C; that for `CC=C(C)Cl`, -19 °C.

On to `O=C(CNC(=O)OCC1c2ccccc2-c2ccccc21)Oc1c(F)c(F)c(F)c(F)c1F`, for which the melting point lay within 159 to 160 °C.

`N#CC=C(Cl)C#N` displayed a melting point of 60.5 °C. In turn, `c1ccc(-c2nc3ccccc3nc2-c2cccc3ccccc23)cc1` displayed a melting point of 138 °C. The result for `O=CCc1ccccc1` reads 33.5 °C. In turn, `CC(=O)Nc1ccccc1/C=C/c1cc(C)c([N+](=O)[O-])cc1[N+](=O)[O-]` yielded a melting point of 252 °C. `O=S(=O)(Cl)c1ccc(-c2ccno2)s1` had a melting point of 69 to 70 °C. Then `O=C(Cl)C1COc2ccccc2O1` (configuration not stated), with 56 to 57 °C; and `NS(=O)(=O)c1ccc(S(=O)(=O)CCCCO)c(F)c1`, with 134 °C; and `Cc1c(CCl)c(C)c2c(c1CCl)CC2`, with 92 °C.

The molecule `O=S(=O)(Cl)c1ccccc1C(F)(F)F` gave a melting point of 23 °C. The result for `Cc1cc(-c2ccccc2)n2nc(C(F)(F)F)nc2n1` reads 89 °C. Then `Cc1ccccc1/C=C(\C#N)c1nc2ccccc2n1C`, with 269 °C. For `O=C(ON=C(c1cc2ccccc2o1)c1cc2ccccc2o1)c1ccccc1`, the melting point is 154 to 155 °C. The result for `CCN(CC)CCOc1ccc(C(O)(Cc2ccc(Cl)cc2)c2ccc(C)cc2)cc1` (configuration not stated) reads 103 °C; that for `COC(=O)c1ccc(CS(=O)(=O)Cl)cc1`, 116 to 117 °C; that for `CC(=O)Nc1cc([N+](=O)[O-])ccc1Nc1ccc(C)cc1`, 176 °C. Then `Cc1c(C(=O)O)cc(-c2ccccc2)n1-c1ccccc1`, with 226 to 227 °C; and `Cc1ccc(C(=O)COc2c(C(=O)c3ccc(Cl)c(C)c3Cl)c(C)nn2C)cc1`, with 133 °C. `CC(C)C(=O)C(C)C` came in with a melting point of -69 °C. Then `CC12CCCCC1CCC1C2CCC2(C)C(OCc3ccccc3)CCC12` (configuration not stated), with 160 °C; and `O=C(O)c1ccc(N=C=S)cc1`, with 220 °C; and `CCOc1ccc2c3c1OC1C(O)C=CC4C(C2)N(C)CCC341` (configuration not stated), with 200 °C. Then `S=C(Oc1ccccc1)Oc1ccccc1`, with 106 °C. Then `O=C(Cl)C12CC3CC(CC(C3)C1)C2`, with 51 °C; and `COc1ccc(C[C@H](N)C(=O)O)cc1`, with 259 to 261 °C; and `Cc1ncc(CO)c(N)n1`, with 198 °C. Take `O=[N+]([O-])OCC(CO[N+](=O)[O-])O[N+](=O)[O-]`: the melting point came out at 14 °C. The result for `CN(C)c1ccc(NC(N)=S)cc1` reads 190 °C. Then `CCOC(=O)C1=C(C)OC(N)=C(C#N)C1c1ccc2c(c1)CCO2` (configuration not stated), with 160 to 166 °C. `COC(=O)CCc1ccc2c(c1)CCC(=O)N2` displayed a melting point of 134 °C. The result for `CC12CCC(C(Br)=C(Br)C1=O)C2(C)C` (configuration not stated) reads 103 °C. The result for `N#Cc1cc(F)ccc1Cl` reads 84 °C; that for `Cc1cc(C2CCCCC2)n(O)c(=O)c1`, 144 °C.

On to `Cn1c2c(c3ccccc31)CCCC2`, for which the melting point was 52 °C. Turning to `Cc1ccc(S(=O)(=O)OCCOCCOCCOS(=O)(=O)c2ccc(C)cc2)cc1`, the melting point was in the range of 80 to 82 °C.

In turn, `O=C(c1cccs1)c1noc(-c2cccc3ccccc23)c1S(=O)(=O)c1ccccc1` had a melting point of 124 °C. Then `Nc1cc(Br)cnc1Cl`, with 131 °C; and `Nc1c(Br)cc(C(F)(F)F)cc1[N+](=O)[O-]`, with 71 °C; and `CC(C)(C)OC(=O)N1Cc2[nH]c3ccccc3c2C[C@H]1C(=O)O`, with 286 to 291 °C. The result for `COC(=O)CCC(C)C1CCC2C3CCC4CC(=O)CCC4(C)C3CCC12C` (configuration not stated) reads 116 to 118 °C; that for `O=c1c(Nc2ccccc2)c(Nc2ccccc2)c1=O`, 270 °C.
